Data reported in ChEMBL document CHEMBL1649364, “Synthesis and antifungal activity of some substituted phenothiazines and related compounds” (2011).
Active and inactive are the calls of the source. No cut-off for these calls is given here.

Columns and labels:
Aspergillus terreus [1] = assay: Antifungal activity against Aspergillus terreus by microdilution test; assay type: functional
[2] = Antifungal activity against Exophiala xenobiotica by diffusion test; assay type: functional
Aspergillus niger [3] = assay: Antifungal activity against Aspergillus niger by microdilution test; assay type: functional
Cryptococcus neoformans [4] = assay: Antifungal activity against Cryptococcus neoformans by microdilution test; assay type: functional
Pichia kudriavzevii [5] = assay: Antifungal activity against Candida krusei by microdilution test; assay type: functional
Aspergillus nidulans [6] = assay: Antifungal activity against Aspergillus nidulans by microdilution test; assay type: functional, organism-based
[7] = Antifungal activity against Cladophialophora carrionii by diffusion test; assay type: functional
[8] = Antifungal activity against Cladophialophora carrionii by microdilution test; assay type: functional
[9] = test system: Meyerozyma guilliermondii; assay: Antifungal activity against Candida guilliermondii by diffusion test; assay type: functional, organism-based
Aspergillus nidulans [10] = assay: Antifungal activity against Aspergillus nidulans by diffusion test; assay type: functional, organism-based
Exophiala spinifera [11] = assay: Antifungal activity against Exophiala spinifera by diffusion test; assay type: functional, organism-based
Aspergillus terreus [12] = assay: Antifungal activity against Aspergillus terreus by diffusion test; assay type: functional, organism-based
Aspergillus flavus [13] = assay: Antifungal activity against Aspergillus flavus by microdilution test; assay type: functional
Cryptococcus neoformans [14] = assay: Antifungal activity against Cryptococcus neoformans by diffusion test; assay type: functional, organism-based
Candida parapsilosis [15] = assay: Antifungal activity against Candida parapsilosis by diffusion test; assay type: functional, organism-based
Candida albicans [16] = assay: Antifungal activity against Candida albicans by microdilution test; assay type: functional
[17] = Antifungal activity against Exophiala oligosperma by microdilution test; assay type: functional
[18] = Antifungal activity against Exophiala oligosperma by diffusion test; assay type: functional
[19] = Antifungal activity against Aspergillus fumigates by microdilution test; assay type: functional
Nakaseomyces glabratus [20] = assay: Antifungal activity against Candida glabrata by microdilution test; assay type: functional
Nakaseomyces glabratus [21] = assay: Antifungal activity against Candida glabrata by diffusion test; assay type: functional, organism-based
[22] = Antifungal activity against Aspergillus fumigates by diffusion test; assay type: functional
Aspergillus niger [23] = assay: Antifungal activity against Aspergillus niger by diffusion test; assay type: functional, organism-based
Pichia kudriavzevii [24] = assay: Antifungal activity against Candida krusei by diffusion test; assay type: functional, organism-based
Exophiala spinifera [25] = assay: Antifungal activity against Exophiala spinifera by microdilution test; assay type: functional
[26] = Antifungal activity against Exophiala xenobiotica by microdilution test; assay type: functional
Aspergillus flavus [27] = assay: Antifungal activity against Aspergillus flavus by diffusion test; assay type: functional, organism-based
Candida albicans [28] = assay: Antifungal activity against Candida albicans by diffusion test; assay type: functional, organism-based
[29] = test system: Meyerozyma guilliermondii; assay: Antifungal activity against Candida guilliermondii by microdilution test; assay type: functional
Candida parapsilosis [30] = assay: Antifungal activity against Candida parapsilosis by microdilution test; assay type: functional

With CN(C)S(=O)(=O)c1ccc2c(c1)Nc1ccccc1S2 the Activity (Aspergillus terreus [1]) was “inactive”, the Activity [2] was “Active” and the Activity (Aspergillus niger [3]) was “inactive”. For the same compound, the Activity (Cryptococcus neoformans [4]) was “inactive”, the Activity (Pichia kudriavzevii [5]) was “inactive” and the Activity (Aspergillus nidulans [6]) was “inactive”. The Activity [7] was “Active”, the Activity [8] was “inactive” and the Activity [9] was “Active”. For the same compound, the Activity (Aspergillus nidulans [10]) was “Active”, the Activity (Exophiala spinifera [11]) was “Active” and the Activity (Aspergillus terreus [12]) was “Active”. For the same compound, the Activity (Aspergillus flavus [13]) was “inactive”, the Activity (Cryptococcus neoformans [14]) was “Active” and the Activity (Candida parapsilosis [15]) was “Active”. For the same compound, the Activity (Candida albicans [16]) was “inactive”, the Activity [17] was “inactive” and the Activity [18] was “Active”. The Activity [19] was “inactive”, the Activity (Nakaseomyces glabratus [20]) was “inactive” and the Activity (Nakaseomyces glabratus [21]) was “Active”. For the same compound, the Activity [22] was “Active”, the Activity (Aspergillus niger [23]) was “Active” and the Activity (Pichia kudriavzevii [24]) was “Active”. For the same compound, the Activity (Exophiala spinifera [25]) was “inactive”, the Activity [26] was “inactive” and the Activity (Aspergillus flavus [27]) was “Active”. For the same compound, the Activity (Candida albicans [28]) was “Active”, the Activity [29] was “inactive” and the Activity (Candida parapsilosis [30]) was “inactive”.
